According to US20240317777A1, “NOVEL MACROCYCLIC AMINOPYRAZOLE COMPOUNDS AS CDK2 INHIBITORS” (Accutar Biotechnology Inc., priority 2023, published 2024):
Like-named read-outs stand apart in the source and are kept apart here.

How the values were obtained:
CDK6-CYCLIN D3 = CDK6-CYCLIN D3 (Homo sapiens, UniProt Q00534); assay: CDK protein kinase inhibition by ADP-Glo assay, CDK6-CYCLIN D3; type: biochemical; conditions: for IC50: read-out: CDK6-CYCLIND3, IC50; for CDK2 Fold selectivity, CDK6 / CDK2 Fold Sensitivity, CDK6: CDK2 versus CDK6; for CDK2 Fold selectivity, CDK6: Table 22; for CDK2 Fold selectivity against CDK6: Table 36, fold selectivity for CDK2 over CDK6, recombinant CDK kinases; for CDK2 Fold Sensitivity, CDK6: Table 8
CDK6-CYCLIN D3, sequence (Q00534 whole entry): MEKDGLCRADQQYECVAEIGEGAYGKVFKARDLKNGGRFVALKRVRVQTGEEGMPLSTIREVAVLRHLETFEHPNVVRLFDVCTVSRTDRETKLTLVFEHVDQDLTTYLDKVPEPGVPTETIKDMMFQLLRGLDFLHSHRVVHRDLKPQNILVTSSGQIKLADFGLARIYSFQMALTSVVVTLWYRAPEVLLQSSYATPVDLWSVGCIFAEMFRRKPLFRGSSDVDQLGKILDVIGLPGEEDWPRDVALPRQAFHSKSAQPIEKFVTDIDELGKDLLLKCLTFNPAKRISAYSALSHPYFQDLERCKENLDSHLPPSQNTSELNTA
CDK6-CYCLIN D3, sequence (P30281 whole entry partner): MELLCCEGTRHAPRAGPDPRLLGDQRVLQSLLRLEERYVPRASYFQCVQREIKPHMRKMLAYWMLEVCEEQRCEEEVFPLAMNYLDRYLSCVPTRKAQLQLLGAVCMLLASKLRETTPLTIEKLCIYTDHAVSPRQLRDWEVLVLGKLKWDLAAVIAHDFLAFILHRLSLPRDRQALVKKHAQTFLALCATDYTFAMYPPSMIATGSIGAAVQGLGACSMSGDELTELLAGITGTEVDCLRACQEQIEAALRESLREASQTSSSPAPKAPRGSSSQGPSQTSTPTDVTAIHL
Procedure, shortened: (§1)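 In this assay, substrate phosphorylation by each CDK/cyclin pair is measured indirectly as ADP, read by ADP-Glo luminescence. The reaction uses 1000 μM ATP at 22° C in pH 7.5 buffer with 1% DMSO.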

[1] = tested on: Phospho-Rb (Ser807/811) in OVCAR3 cells; assay: Phospho-Rb expression inhibition in OVCAR3 cells quantified by In Cell Western; type: cell-based; conditions: Homo sapiens, OVCAR-3, 24 hours, read-out: OVCAR-3 pRb IC50
Procedure, shortened: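 In-cell western: after 24 h compound exposure at 37° C, fixed OVCAR3 cells co-stained for pRb Ser807/811 (800 nm channel) and total Rb (680 nm channel), imaged by LI-COR Odyssey.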

CDK2-CYCLIN E1 = CDK2-CYCLIN E1 (Homo sapiens, UniProt P24941); assay: CDK protein kinase inhibition by ADP-Glo assay, CDK2-CYCLIN E1; type: biochemical; conditions: read-out: CDK2-CYCLINE, IC50
Procedure, shortened: as §1

[2] = tested on: CCNE1-amplified OVCAR3 cells; assay: Cell growth inhibition of CCNE1-amplified OVCAR3 cells (CellTiter-Glo); type: cell-based; conditions: Homo sapiens, OVCAR-3, 144 h, 6 days
Procedure, shortened: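 Growth read-out was CellTiter-Glo luminescence, taken after 10 min at room temperature at the end of a 6-day compound exposure at 37 °C. Compounds were diluted from DMSO stocks across various concentrations.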

CDK9-CYCLIN T1 = CDK9-CYCLIN T1 (Homo sapiens, UniProt P50750); assay: CDK protein kinase inhibition by ADP-Glo assay, CDK9-CYCLIN T1; type: biochemical; conditions: for IC50: read-out: CDK9-CYCLINT1, IC50; for CDK2 Fold selectivity, CDK9 / CDK2 Fold Sensitivity, CDK9: CDK2 versus CDK9; for CDK2 Fold selectivity, CDK9: Table 22; for CDK2 Fold selectivity against CDK9: Table 36, fold selectivity for CDK2 over CDK9, recombinant CDK kinases; for CDK2 Fold Sensitivity, CDK9: Table 8
CDK9-CYCLIN T1, sequence (P50750 whole entry): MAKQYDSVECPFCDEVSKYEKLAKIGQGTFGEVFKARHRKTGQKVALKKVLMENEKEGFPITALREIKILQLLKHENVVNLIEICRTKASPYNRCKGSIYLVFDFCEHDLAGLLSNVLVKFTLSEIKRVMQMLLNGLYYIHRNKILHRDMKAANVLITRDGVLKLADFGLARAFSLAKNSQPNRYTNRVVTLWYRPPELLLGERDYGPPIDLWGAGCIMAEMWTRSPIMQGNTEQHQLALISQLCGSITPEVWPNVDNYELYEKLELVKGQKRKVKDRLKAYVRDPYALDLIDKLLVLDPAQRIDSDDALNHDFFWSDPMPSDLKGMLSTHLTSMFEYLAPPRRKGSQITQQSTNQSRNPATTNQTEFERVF
CDK9-CYCLIN T1, sequence (O60563 whole entry partner): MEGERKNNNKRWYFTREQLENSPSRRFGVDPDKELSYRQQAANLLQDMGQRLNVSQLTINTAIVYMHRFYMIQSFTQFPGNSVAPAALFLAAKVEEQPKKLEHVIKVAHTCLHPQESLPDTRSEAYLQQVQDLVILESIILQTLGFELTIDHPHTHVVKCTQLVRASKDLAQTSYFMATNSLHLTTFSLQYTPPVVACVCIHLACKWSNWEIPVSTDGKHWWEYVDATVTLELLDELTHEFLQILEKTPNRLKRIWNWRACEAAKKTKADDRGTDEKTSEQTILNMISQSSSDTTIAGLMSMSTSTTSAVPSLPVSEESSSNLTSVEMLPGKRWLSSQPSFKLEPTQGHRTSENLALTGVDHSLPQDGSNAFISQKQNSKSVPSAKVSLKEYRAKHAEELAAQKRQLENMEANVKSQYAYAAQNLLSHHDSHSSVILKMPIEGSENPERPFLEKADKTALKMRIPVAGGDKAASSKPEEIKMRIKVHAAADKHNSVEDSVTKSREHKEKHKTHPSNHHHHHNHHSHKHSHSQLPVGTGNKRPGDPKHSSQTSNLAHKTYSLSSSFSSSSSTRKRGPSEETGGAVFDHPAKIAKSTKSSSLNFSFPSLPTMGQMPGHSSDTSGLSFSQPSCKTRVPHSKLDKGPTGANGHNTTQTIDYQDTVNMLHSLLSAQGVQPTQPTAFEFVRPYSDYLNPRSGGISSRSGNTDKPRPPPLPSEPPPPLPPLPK
Procedure, shortened: as §1

CCNE1-normal SKOV3 cells = assay: Cell growth inhibition of CCNE1-normal SKOV3 cells (CellTiter-Glo); type: cell-based; conditions: Homo sapiens, SK-OV-3, 144 h, 6 days
Procedure, shortened: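 Growth was measured by CellTiter-Glo luminescence after 6 days' compound exposure at 37 °C. Cells were plated one day before dosing at 1000 per well in medium with 10% FBS, and compounds were diluted from DMSO stocks.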

CDK4-CYCLIN D1 = CDK4-CYCLIN D1 (Homo sapiens, UniProt P11802); assay: CDK protein kinase inhibition by ADP-Glo assay, CDK4-CYCLIN D1; type: biochemical; conditions: for IC50: read-out: CDK4-CYCLIND1, IC50; for CDK2 Fold selectivity, CDK4 / CDK2 Fold Sensitivity, CDK4: CDK2 versus CDK4; for CDK2 Fold selectivity, CDK4: Table 22; for CDK2 Fold selectivity against CDK4: Table 36, fold selectivity for CDK2 over CDK4, recombinant CDK kinases; for CDK2 Fold Sensitivity, CDK4: Table 8
CDK4-CYCLIN D1, sequence (P11802 whole entry): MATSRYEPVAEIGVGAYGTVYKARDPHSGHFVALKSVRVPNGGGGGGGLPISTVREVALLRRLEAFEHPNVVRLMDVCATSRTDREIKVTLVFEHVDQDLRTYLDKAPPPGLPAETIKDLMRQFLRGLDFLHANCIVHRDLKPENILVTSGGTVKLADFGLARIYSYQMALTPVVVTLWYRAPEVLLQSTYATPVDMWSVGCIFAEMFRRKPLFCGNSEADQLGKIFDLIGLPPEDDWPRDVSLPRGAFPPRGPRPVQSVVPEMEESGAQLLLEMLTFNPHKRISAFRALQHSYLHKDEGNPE
CDK4-CYCLIN D1, sequence (P24385 whole entry partner): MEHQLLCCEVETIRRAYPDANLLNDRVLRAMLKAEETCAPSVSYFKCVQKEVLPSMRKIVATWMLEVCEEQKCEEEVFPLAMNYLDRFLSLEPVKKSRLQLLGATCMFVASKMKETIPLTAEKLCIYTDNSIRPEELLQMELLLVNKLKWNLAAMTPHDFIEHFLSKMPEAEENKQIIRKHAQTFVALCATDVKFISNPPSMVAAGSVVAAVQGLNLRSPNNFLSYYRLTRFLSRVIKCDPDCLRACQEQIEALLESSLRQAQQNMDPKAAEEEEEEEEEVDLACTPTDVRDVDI
Procedure, shortened: as §1

CDK1-CYCLIN B = CDK1-CYCLIN B (Homo sapiens, UniProt P06493); assay: CDK protein kinase inhibition by ADP-Glo assay, CDK1-CYCLIN B; type: biochemical; conditions: for IC50: read-out: CDK1-CYCLINB, IC50; for CDK2 Fold selectivity, CDK1 / CDK2 fold selectivity over CDK1: CDK2 versus CDK1; for CDK2 Fold selectivity, CDK1: Table 22; for CDK2 Fold selectivity against CDK1: Table 36, fold selectivity for CDK2 over CDK1, recombinant CDK kinases; for CDK2 fold selectivity over CDK1: Table 8
CDK1-CYCLIN B, sequence (P06493 whole entry): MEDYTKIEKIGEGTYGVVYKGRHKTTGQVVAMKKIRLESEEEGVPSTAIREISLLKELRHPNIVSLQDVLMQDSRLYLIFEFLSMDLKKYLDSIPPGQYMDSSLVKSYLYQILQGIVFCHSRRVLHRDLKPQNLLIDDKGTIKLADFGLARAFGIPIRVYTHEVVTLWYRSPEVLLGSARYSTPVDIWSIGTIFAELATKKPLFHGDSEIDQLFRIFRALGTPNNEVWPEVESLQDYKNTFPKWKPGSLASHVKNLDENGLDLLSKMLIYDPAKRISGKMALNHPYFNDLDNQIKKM
CDK1-CYCLIN B, sequence (P14635 whole entry partner): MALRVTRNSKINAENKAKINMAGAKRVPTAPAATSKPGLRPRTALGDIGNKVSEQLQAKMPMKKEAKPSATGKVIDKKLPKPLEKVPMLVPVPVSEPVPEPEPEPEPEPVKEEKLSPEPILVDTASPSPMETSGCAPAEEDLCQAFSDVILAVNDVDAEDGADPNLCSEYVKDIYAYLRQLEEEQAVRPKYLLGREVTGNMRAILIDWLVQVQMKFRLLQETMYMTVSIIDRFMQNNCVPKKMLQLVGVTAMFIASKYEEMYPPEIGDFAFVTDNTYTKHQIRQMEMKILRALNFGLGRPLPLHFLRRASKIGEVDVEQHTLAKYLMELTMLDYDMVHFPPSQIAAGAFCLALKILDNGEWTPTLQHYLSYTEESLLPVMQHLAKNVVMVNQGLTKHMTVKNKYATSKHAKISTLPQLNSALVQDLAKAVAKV
Procedure, shortened: as §1

[3] = Table 35, recombinant CDK kinase

Compound	IC50 [1] [nM]	IC50 [2] [nM]	IC50 (CDK6-CYCLIN D3; [3]) [nM]	CDK2 Fold selectivity against CDK6 (CDK6-CYCLIN D3)	IC50 (CDK2-CYCLIN E1; [3]) [nM]	IC50 (CDK9-CYCLIN T1; [3]) [nM]	CDK2 Fold selectivity against CDK9 (CDK9-CYCLIN T1)	IC50 (CDK4-CYCLIN D1; [3]) [nM]	CDK2 Fold selectivity against CDK4 (CDK4-CYCLIN D1)	IC50 (CDK1-CYCLIN B; [3]) [nM]	CDK2 Fold selectivity against CDK1 (CDK1-CYCLIN B)	IC50 (CCNE1-normal SKOV3 cells) [nM]	other results
O=C1NCCCCCc2cc(cc(C(F)F)n2)Nc2cc([nH]n2)[C@H]2CC[C@H](C2)O1 [Compound 17, (1^1S,1^3R,Z)-4^6-(difluoromethyl)-2^1H-12-oxa-3,10-diaza-4(4,2)-pyridina-2(3,5)-pyrazola-1(1,3)-cyclopentanacyclododecaphan-11-one]	2 to 10	2 to 10										250 to 1250	IC50 (CDK6-CYCLIN D3; ADP-Glo, 1000 μM ATP, Table 7): 50 to 100 nM; CDK2 Fold Sensitivity, CDK6 (CDK6-CYCLIN D3): B (B, >100 and ≤500); IC50 (CDK2-CYCLIN E1; ADP-Glo, 1000 μM ATP, Table 7): ≤ 10 nM; IC50 (CDK9-CYCLIN T1; ADP-Glo, 1000 μM ATP, Table 7): 50 to 100 nM; CDK2 Fold Sensitivity, CDK9 (CDK9-CYCLIN T1): C (C, >50 and ≤100); IC50 (CDK4-CYCLIN D1; ADP-Glo, 1000 μM ATP, Table 7): 100 to 500 nM; CDK2 Fold Sensitivity, CDK4 (CDK4-CYCLIN D1): B (B, >100 and ≤500); IC50 (CDK1-CYCLIN B; ADP-Glo, 1000 μM ATP, Table 7): ≤ 10 nM; CDK2 fold selectivity over CDK1 (CDK1-CYCLIN B): E (E, <20)
O=C1NCCCCOc2cccc(c2)Nc2cc([nH]n2)[C@H]2CC[C@H](C2)O1 [Compound 105, (1^1S,1^3R,Z)-2^1H-5,12-dioxa-3,10-diaza-2(5,3)-pyrazola-4(1,3)-benzena-1(1,3)-cyclopentanacyclododecaphan-11-one]	10 to 50	50 to 250										> 1250	IC50 (CDK6-CYCLIN D3; ADP-Glo, 1000 μM ATP, Table 7): 100 to 500 nM; CDK2 Fold Sensitivity, CDK6 (CDK6-CYCLIN D3): C (C, >50 and ≤100); IC50 (CDK2-CYCLIN E1; ADP-Glo, 1000 μM ATP, Table 7): ≤ 10 nM; IC50 (CDK9-CYCLIN T1; ADP-Glo, 1000 μM ATP, Table 7): > 500 nM; CDK2 Fold Sensitivity, CDK9 (CDK9-CYCLIN T1): B (B, >100 and ≤500); IC50 (CDK4-CYCLIN D1; ADP-Glo, 1000 μM ATP, Table 7): 100 to 500 nM; CDK2 Fold Sensitivity, CDK4 (CDK4-CYCLIN D1): D (D, >20 and ≤50); IC50 (CDK1-CYCLIN B; ADP-Glo, 1000 μM ATP, Table 7): 100 to 500 nM; CDK2 fold selectivity over CDK1 (CDK1-CYCLIN B): C (C, >50 and ≤100)
C[C@H]1CCCNC(=O)O[C@@H]2CC[C@@H](C2)c2cc([nH]n2)Nc2cccc(c2)O1 [Compound 157, (1^1S,1^3R,6S,Z)-6-methyl-2^1H-5,12-dioxa-3,10-diaza-2(3,5)-pyrazola-4(1,3)-benzena-1(1,3)-cyclopentanacyclododecaphan-11-one]	10 to 50	10 to 50										250 to 1250	IC50 (CDK6-CYCLIN D3; ADP-Glo, 1000 μM ATP, Table 21): 100 to 500 nM; CDK2 Fold selectivity, CDK6 (CDK6-CYCLIN D3): D (D, >20 and ≤50); IC50 (CDK2-CYCLIN E1; ADP-Glo, 1000 μM ATP, Table 21): ≤ 10 nM; IC50 (CDK9-CYCLIN T1; ADP-Glo, 1000 μM ATP, Table 21): 100 to 500 nM; CDK2 Fold selectivity, CDK9 (CDK9-CYCLIN T1): C (C, >50 and ≤100); IC50 (CDK4-CYCLIN D1; ADP-Glo, 1000 μM ATP, Table 21): 100 to 500 nM; CDK2 Fold selectivity, CDK4 (CDK4-CYCLIN D1): D (D, >20 and ≤50); IC50 (CDK1-CYCLIN B; ADP-Glo, 1000 μM ATP, Table 21): 50 to 100 nM; CDK2 Fold selectivity, CDK1 (CDK1-CYCLIN B): E (E, <20)

Second part, led by results:

IC50 [1] [nM]	IC50 [2] [nM]	IC50 (CDK6-CYCLIN D3; [3]) [nM]	CDK2 Fold selectivity against CDK6 (CDK6-CYCLIN D3)	IC50 (CDK2-CYCLIN E1; [3]) [nM]	IC50 (CDK9-CYCLIN T1; [3]) [nM]	CDK2 Fold selectivity against CDK9 (CDK9-CYCLIN T1)	IC50 (CDK4-CYCLIN D1; [3]) [nM]	CDK2 Fold selectivity against CDK4 (CDK4-CYCLIN D1)	IC50 (CDK1-CYCLIN B; [3]) [nM]	CDK2 Fold selectivity against CDK1 (CDK1-CYCLIN B)	Compound	IC50 (CCNE1-normal SKOV3 cells) [nM]	other results
≤ 2	≤ 2										O=C1NCCCO[C@@H](C(F)(F)F)c2cc(ccn2)Nc2cc(n[nH]2)[C@H]2CC[C@H](C2)O1 [Compound 161, (1^1S,1^3R,5R,Z)-5-(trifluoromethyl)-2^1H-6,12-dioxa-3,10-diaza-4(4,2)-pyridina-2(3,5)-pyrazola-1(1,3)-cyclopentanacyclododecaphan-11-one]	50 to 250	IC50 (CDK6-CYCLIN D3; ADP-Glo, 1000 μM ATP, Table 21): 10 to 50 nM; CDK2 Fold selectivity, CDK6 (CDK6-CYCLIN D3): E (E, <20); IC50 (CDK2-CYCLIN E1; ADP-Glo, 1000 μM ATP, Table 21): ≤ 10 nM; IC50 (CDK9-CYCLIN T1; ADP-Glo, 1000 μM ATP, Table 21): 10 to 50 nM; CDK2 Fold selectivity, CDK9 (CDK9-CYCLIN T1): E (E, <20); IC50 (CDK4-CYCLIN D1; ADP-Glo, 1000 μM ATP, Table 21): 10 to 50 nM; CDK2 Fold selectivity, CDK4 (CDK4-CYCLIN D1): E (E, <20); IC50 (CDK1-CYCLIN B; ADP-Glo, 1000 μM ATP, Table 21): ≤ 10 nM; CDK2 Fold selectivity, CDK1 (CDK1-CYCLIN B): E (E, <20)
2 to 10	10 to 50	10 to 50	E (E, <20)	≤ 10	10 to 50	E (E, <20)	10 to 50	E (E, <20)	≤ 10	E (E, <20)	C[C@H]1CCCOc2cc(ccn2)Nc2cc(n[nH]2)[C@@H]2C[C@H](F)[C@@H](C2)OC(=O)N1 [Compound 225, (1^1S,1^3R,1^4S,9S,Z)-1^4-fluoro-9-methyl-2^1H-5,12-dioxa-3,10-diaza-4(4,2)-pyridina-2(3,5)-pyrazola-1(1,3)-cyclopentanacyclododecaphan-11-one]	250 to 1250	
2 to 10	10 to 50										O=C1N[C@H]2C[C@H](CCc3cc(ccn3)Nc3cc(n[nH]3)[C@H]3CC[C@H](C3)O1)C2 [compound 140]	50 to 250	IC50 (CDK6-CYCLIN D3; ADP-Glo, 1000 μM ATP, Table 19): 50 to 100 nM; IC50 (CDK2-CYCLIN E1; ADP-Glo, 1000 μM ATP, Table 19): ≤ 10 nM; IC50 (CDK9-CYCLIN T1; ADP-Glo, 1000 μM ATP, Table 19): 10 to 50 nM; IC50 (CDK4-CYCLIN D1; ADP-Glo, 1000 μM ATP, Table 19): 10 to 50 nM; IC50 (CDK1-CYCLIN B; ADP-Glo, 1000 μM ATP, Table 19): 10 to 50 nM
2 to 10	10 to 50	100 to 500	C (C, >50 and ≤100)	≤ 10	> 500	B (B, >100 and ≤500)	100 to 500	C (C, >50 and ≤100)	10 to 50	E (E, <20)	C[C@H]1CCCOc2cc(ccn2)Nc2cc(n[nH]2)[C@H]2C[C@@H](F)[C@H](C2)OC(=O)N1 [Compound 224, (1^1R,1^3S,1^4R,9S,Z)-1^4-fluoro-9-methyl-2^1H-5,12-dioxa-3,10-diaza-4(4,2)-pyridina-2(3,5)-pyrazola-1(1,3)-cyclopentanacyclododecaphan-11-one]	> 1250	
2 to 10	10 to 50	100 to 500	C (C, >50 and ≤100)	≤ 10	100 to 500	C (C, >50 and ≤100)	100 to 500	C (C, >50 and ≤100)	50 to 100	E (E, <20)	C[C@H]1CC(F)(F)COc2cc(ccn2)Nc2cc(n[nH]2)[C@H]2CC[C@H](C2)OC(=O)N1 [Compound 223, (1^1S,1^3R,9S,Z)-7,7-difluoro-9-methyl-2^1H-5,12-dioxa-3,10-diaza-4(4,2)-pyridina-2(3,5)-pyrazola-1(1,3)-cyclopentanacyclododecaphan-11-one]	250 to 1250	
